Data on one compound can be found in patent US8530183B2, “Zinc sensors for cellular imaging” (The Board of Regents of the University of Texas System, priority 2010, dated 2013).

The subject of one series is MIN6 cells. Put plainly: Cellular uptake and membrane labeling followed by confocal laser scanning microscopy. The series is classed as cell-based, mouse. How it is done:
FIGS. 4A-F. ZIMIR labels plasma membranes of intact living cells rapidly, non-invasively and stably. ZIMIR (1 μM) was added to MIN6 cells in FIBS buffer (containing ˜1 μM Zn^2+ enhance fluorescence intensity). Confocal images (Ex 488 nm, Em 510-550 nm) were subsequently acquired at 2 min (FIG. 4A), 5 min (FIG. 4B), 10 min (FIG. 4C), and 20 min (FIG. 4D). Cells were then washed with FIBS buffer three times and imaged again at 21 min (FIG. 4E), and 140 min (FIG. 4F).
Cell culture and ZIMIR imaging by wide field fluorescence microscopy. Details of cell culture are described below. For cell imaging, we cultured cells in 35 mm petri dishes with glass-bottoms (MatTek, Ashland, Mass.). To label cells with ZIMIR, cells were washed with a Secretion Assay Buffer (SAB) containing 114 mM NaCl, 4.7 mM KCl, 1.2 mM KH2PO4, 2.5 mM CaCl2, 1.16 mM MgSO4, 3 mM glucose, and 20 mM HEPES (pH 7.4). The DMSO stock solution of ZIMIR. (1-2 mM) diluted in a small volume of SAB was added to cells to a final concentration of 1 μM. Cells were then incubated at ˜25° C. for 20 min and washed with SAB before imaging. To image insulin/Zn^2+ secretion, we routinely included 10 μM of EDTA in SAB to chelate the residual Zn^2+ and to reduce the baseline fluorescence. In addition, DPAS (2-4 μM) was added to SAB in some experiments to better resolve the dynamics of oscillatory insulin release.
ZIMIR uptake and Zn2+ response in live cells. To examine the cellular uptake of ZIMIR, the inventors used a mouse insulinoma cell line, MIN6 (Miyazaki et al., 1990). When ZIMIR was incubated with cells at 1 μM concentration, it rapidly adhered to the cell surface of intact living cells (data not shown). In order to test the specificity and stability of membrane labeling, the inventors used confocal laser scanning microscopy (CLSM) to follow the cellular uptake and distribution of ZIMIR in MIN6 cells (FIGS. 4A-F). Within 5 min after probe addition, there was already a clear accumulation of ZIMIR along the plasma membrane (FIGS. 4A-B). By 20 min, the cellular uptake of ZIMIR appeared to reach completion (FIGS. 4C-D). […]

A further series has as its system pancreatic islets. Put plainly: Confocal imaging of dye uptake and insulin/Zn2+ release in pancreatic islets. The series is classed as cell-based, mouse. How it is done: FIGS. 8A-C. Imaging insulin/Zn^2+ release in islets by confocal laser scanning microscopy. (FIGS. 8A-B) Confocal images of mouse islets labeled with ZIMIR (FIG. 8A) or calcein/AM (FIG. 8B). (FIG. 8C) Confocal ZIMIR imaging of insulin/Zn^2+ release in a mouse islet bathed in SAB. Images from two example layers 15 μm apart before and 10 sec post KCl (40 mM) stimulation were shown.
FIG. 11. ZIMIR rapidly labels cells of intact human islets. Representative CLSM images of a ZIMIR labeled human islet at three focal planes 20 μm apart.
Islets labeling and ZIMIR imaging by confocal laser scanning microscopy. Experiments with rodent animals were carried out according to protocols approved by the Institutional Animal Care and Use Committee of University of Texas Southwestern Medical Center. Rodent islets were isolated from Sprague-Dawley rats or C57BL/6 mice after digesting exocrine tissues of pancreas using collagenase as described below. To image insulin release in islets, the inventors labeled islets with ZIMIR (final concentration 2 μM with 0.025% Pluronic) in SAB buffer for […]. Labeled islets were then transferred to an imaging dish that had been coated with 0.5% PuraMatrix peptide hydrogel (BD Biosciences, Cat # 354250). Islets adhered to the PuraMatrix hydrogel within 5 min. They then imaged ZIMIR fluorescence by confocal laser scanning microscopy using a LSM510 imaging system (Carl Zeiss) and a 40× oil immersion objective (Dakin and Li, 2007).
Confocal imaging of ZIMIR uptake and insulin/Zn^2+ release in pancreatic islets. In addition to cultured cells, ZIMIR also rapidly and noninvasively labels cells in preparations such as dissected pancreatic islets. After loading islets with ZIMIR (2 μM) for 25 min, the inventors applied CLSM to track the distribution of ZIMIR in three dimensions (3D). […] The result confirmed that ZIMIR readily diffused through the interstitial space to reach interior cells, whereas calcein/AM was trapped by cells in the outer layer, unable to penetrate any deeper. After labeling, the inventors depolarized cells with high concentration of KCl.

Another series relates to cultured mammalian cells. Put plainly: Growth rate of ZIMIR-labeled cells versus unlabeled cells (cytotoxicity). The series is classed as cell-based. The conditions noted are these: over the next several days after labeling.

Molecules are shown by their SMILES. Entries after “also recorded” stand apart in the source; their conditions may differ.

`CCCCCCCCCCCCN(CC(=O)O)Cc1c2oc3c(CN(CCCCCCCCCCCC)CC(=O)O)c(O)ccc3c(-c3cc(NCCN(CCc4ccccn4)Cc4ccccn4)ccc3C(=O)O)c-2ccc1=O` [ZIMIR]: in the series with MIN6 cells (1 μM ZIMIR, MIN6 cells, CLSM), the “time to clear accumulation along the plasma membrane” value is reported as no more than 5 min and the “time to completion of cellular uptake” value is no more than 20 min. The “membrane retention upon washing” value in the series with MIN6 cells (repetitive washings after labeling) is on record as “did not change membrane fluorescence intensity”. Also, the “distribution of dye in islets (3D, CLSM)” value in the series with pancreatic islets (ZIMIR 2 μM for 25 min, mouse and human islets) was “taken up by cells throughout the islets, from the mantle to the core”. The “ZIMIR fluorescence change in islets upon KCl depolarization” value in the series with pancreatic islets (mouse islet, high concentration of KCl (40 mM)) is “robust and synchronized enhancement of ZIMIR fluorescence”. The “growth rate of labeled cells / cytotoxicity” value in the series with cultured mammalian cells is “same growth rate as unlabeled cells; also recorded: very little cytotoxicity”.
